# Experimental data reported in patent US5866597A, “Use of triazine compounds for the treatment of memory and learning disorders” (Glaxo Wellcome Inc., priority 1993, dated 1999).
# How the values were obtained:
# [1] = tested on: release of excitatory amino acids, principally glutamate; conditions: at anticonvulsant brain concentrations; cited from earlier work
# [2] = tested on: scopolamine-induced pupillary dilatation in rats; assay: Pupil diameter measurement in rats (Table 6); assay type: in vivo, Male Wistar rats; conditions: for Mean pupil diameter: ± SEM
# Experimental: 15 minutes before observation. Under these conditions, which were identical to those used in the learning experiments described in Example 2, changes in salivation and pupil diameter were measured. Salivation was measured by placing a piece of folded filter paper in the rat's mouth and measuring the diameter of the blot in mm after 1 minute. Pupil diameter was measured using a magnifying glass and graticule under normal lighting conditions. For both measures, comparisons were made between control and drug-treated groups using a Student's T-test on independent samples.
# Groups of 6 animals were used.
# [3] = tested on: scopolamine-induced deficit in mice; assay: Modified light-dark box memory test in mice, scopolamine-induced deficit, drug given pre-training (Table 1); assay type: in vivo, Male albino CD-1 mice; conditions: for Mean latency Day 1 / Mean latency Day 2: ± SEM
# Experimental: Male albino CD-1 mice obtained from Charles River were used. They were housed under controlled conditions (temperature 21±2 deg. C., humidity approx. 50%, 12 hour light/dark cycle, food and water ad lib) for one week before use. On the day before test, the mice were housed in groups of six in polythene boxes in the laboratory and marked for identification. Food and water were supplied ad lib. On the test day, animals were weighed and then dosed either 30 minutes before test (piracetam, ondansetron) one hour before test (compound A) or immediately after test.
# All drugs were dissolved or suspended in 0.25% (w/v) aqueous celacol, and administered orally (by gavage), i.p. or s.c. The dose volume was 10 ml/kg for all routes.
# The apparatus consisted of two boxes with an opening 90 mm×60 mm at floor level between them. A plastic door was used to close the opening when required. The smaller box (290 mm×120 mm×120 mm high) was made of opaque plastics, open at the top to allow illumination by normal laboratory lighting. The larger box (305 mm square×280 mm high) was enclosed apart from the single opening.
# This consisted of training, with retest 24 hours later. During training, animals were placed individually in the open box facing away from the end with the opening. After a period of exploration, they usually entered the dark box and the latency to entry in seconds was noted. The door to the dark box was closed, and after 30 seconds had elapsed, the animal was removed gently and returned to the holding box. Twenty-four hours later, an identical procedure was used, except that the session ended as soon as the animal had entered the dark box. The latency was again noted. During the interval, the animals were not handled, and were disturbed as little as possible. Each animal was used once only.
# Test drugs or control fluids were given before or immediately after the training session.
# Group comparisons were made between latencies to enter the dark compartment on the first and second occasions. For both training and retest occasions, comparisons were made between vehicle and treatment groups. […] The difference between latencies on the two occasions is presented as % decrease on Day 2 compared with Day 1.
# The mean latency to enter the dark box±standard error of the mean was calculated from a group of 12 animals. For a given treatment, figures in the columns labelled `Day 1` and `Day 2` show the mean latencies taken from the same group of animals. The difference between data obtained on the two days is illustrated by showing the % decrease, and the data compared using the Mann-Whitney U-test; NS indicates a p value>0.1.
# [4] = tested on: scopolamine-induced deficit in rats; assay: Light-dark box memory test in rats, sub-acute dosing: pre-training, pre-training and pre-retest, or four pre-treatments and before training and retest (Table 5); assay type: in vivo, Male Wistar rats; conditions: for Mean latency Day 5 / Mean latency Day 6: ± SEM
# Experimental: Male Wistar rats obtained from Charles River were used. They were housed under controlled conditions (temperature 21±2 deg. C., humidity approx. 50%, 12 hour light/dark cycle, food and water ad lib) for one week before use. On the day before test the rats were permanently housed in groups of six. Food and water were supplied ad lib. On the test day, animals were weighed and then dosed either 30 minutes before test (midazolam), one hour before test (compound A) or immediately after test.
# In the sub-acute dosing regimen (see `Procedure`) the rats, housed as above, received six doses of drug or vehicle by the oral route, each 24 hours apart.
# All drugs were dissolved or suspended in 0.25% (w/v) aqueous celacol, and administered orally (by gavage), i.p. or s.c. The dose volume was 5 ml/kg for all routes.
# An identical apparatus to that described in Example 1 was used, except that the smaller box measured 370 mm×260 mm×190 mm.
# This consisted of training as described for mice under section (d) of Example 1.
# The procedure was identical with that described above, except that seven groups of rats received compound A or control pre-treatment as 6 oral doses each 24 hours apart, as follows.
# Training took place 1 hour after the fifth dose i.e. on day 5. […] The usual retest was performed 24 hours later (on day 6), one hour after the sixth oral treatment.
# This was as described under section (e) of Example 1.
# The mean latency to enter the dark box±standard error of the mean was calculated from a group of 24 animals (controls in first block) or 12 animals (all other treatments). For a given treatment, figures in the columns labelled `Day 5` and `Day 6` show the mean latencies taken from the same group of animals. The difference between data obtained on the two days is illustrated by showing the % decrease, and the data compared using the Mann-Whitney U-test.
# [5] = saline s.c. + compound A 40 mg/kg p.o., 1 h pre-training
# [6] = scopolamine 1 mg/kg s.c. + compound A 10 mg/kg p.o.
# [7] = scopolamine 1 mg/kg s.c. + compound A 20 mg/kg p.o.
# [8] = scopolamine 1 mg/kg s.c. + compound A 40 mg/kg p.o.
# [9] = saline + compound A 2.5 mg/kg p.o. days 1-6
# [10] = saline + compound A 10 mg/kg p.o. day 5 only
# [11] = saline + compound A 10 mg/kg p.o. days 1-6
# [12] = saline + compound A 10 mg/kg p.o. days 5 and 6
# [13] = saline + compound A 40 mg/kg p.o. day 5 only
# [14] = saline + compound A 40 mg/kg p.o. days 5 and 6
# [15] = scopolamine 0.1 mg/kg s.c. + compound A 2.5 mg/kg p.o. days 1-6
# [16] = scopolamine 0.1 mg/kg s.c. + compound A 10 mg/kg p.o. day 5 only
# [17] = scopolamine 0.1 mg/kg s.c. + compound A 10 mg/kg p.o. days 1-6
# [18] = scopolamine 0.1 mg/kg s.c. + compound A 10 mg/kg p.o. days 5 and 6
# [19] = scopolamine 0.1 mg/kg s.c. + compound A 40 mg/kg p.o. day 5 only
# [20] = scopolamine 0.1 mg/kg s.c. + compound A 40 mg/kg p.o. days 5 and 6
structure (smiles),measurement,setting,value
"Nc1nnc(-c2cccc(Cl)c2Cl)c(N)n1 [Compound A, 3,5-Diamino-6-(2,3-dichlorophenyl)-1,2,4-triazine]","Inhibition of release of excitatory amino acids, principally glutamate",[1],"inhibit the release of excitatory amino acids, principally glutamate"
same,Mean pupil diameter,[2]; compound A 10 mg/kg p.o. + saline s.c.,7.00 ± 0.58 mm × 10
same,Mean pupil diameter,[2]; compound A 40 mg/kg p.o. + saline s.c.,7.75 ± 0.85 mm × 10
same,Mean pupil diameter,[2]; compound A 40 mg/kg p.o. + scopolamine 0.1 mg/kg s.c.,23.0 ± 1.78 mm × 10
same,Influence on scopolamine-induced change in pupil diameter,"[2]; compound A pretreatment, p>0.05 vs vehicle",no influence on the scopolamine-induced changes
same,"Difference between days, % Decrease","[3]; saline s.c. + compound A 40 mg/kg p.o., 1 h pre-training, p <0.01",45%
same,Mean latency Day 1,[3]; [5],23.3 ± 3.4 s
same,Mean latency Day 2,[3]; [5],12.8 ± 1.2 s
same,"Difference between days, % Decrease","[3]; scopolamine 1 mg/kg s.c. + compound A 10 mg/kg p.o., p NS",13%
same,Mean latency Day 1,[3]; [6],19.6 ± 1.7 s
same,Mean latency Day 2,[3]; [6],17.1 ± 2.2 s
same,"Difference between days, % Decrease","[3]; scopolamine 1 mg/kg s.c. + compound A 20 mg/kg p.o., p <0.05",28%
same,Mean latency Day 1,[3]; [7],18.6 ± 2.4 s
same,Mean latency Day 2,[3]; [7],13.3 ± 1.5 s
same,"Difference between days, % Decrease","[3]; scopolamine 1 mg/kg s.c. + compound A 40 mg/kg p.o., p <0.001",56%
same,Mean latency Day 1,[3]; [8],22.1 ± 3.2 s
same,Mean latency Day 2,[3]; [8],9.7 ± 1.2 s
same,Effect on scopolamine-induced deficit,[4]; compound A single dose 10 mg/kg before the learning trial,did not alter the scopolamine-induced deficit
same,"Diff. between days, %","[4]; saline + compound A 2.5 mg/kg p.o. days 1-6, p <0.01",46%
same,Mean latency Day 5,[4]; [9],35.3 ± 3.7 s
same,Mean latency Day 6,[4]; [9],19.3 ± 2.5 s
same,"Diff. between days, %","[4]; saline + compound A 10 mg/kg p.o. day 5 only, p <0.001",52%
same,Mean latency Day 5,[4]; [10],39.8 ± 3.9 s
same,Mean latency Day 6,[4]; [10],19.3 ± 2.5 s
same,"Diff. between days, %","[4]; saline + compound A 10 mg/kg p.o. days 1-6, p <0.01",44%
same,Mean latency Day 5,[4]; [11],34.3 ± 3.6 s
same,Mean latency Day 6,[4]; [11],19.1 ± 3.4 s
same,"Diff. between days, %","[4]; saline + compound A 10 mg/kg p.o. days 5 and 6, p <0.001",48%
same,Mean latency Day 5,[4]; [12],37.2 ± 3.1 s
same,Mean latency Day 6,[4]; [12],19.3 ± 2.6 s
same,"Diff. between days, %","[4]; saline + compound A 40 mg/kg p.o. day 5 only, p <0.01",45%
same,Mean latency Day 5,[4]; [13],35.2 ± 3.4 s
same,Mean latency Day 6,[4]; [13],19.3 ± 3.4 s
same,"Diff. between days, %","[4]; saline + compound A 40 mg/kg p.o. days 5 and 6, p <0.001",50%
same,Mean latency Day 5,[4]; [14],36.0 ± 3.2 s
same,Mean latency Day 6,[4]; [14],17.8 ± 2.2 s
same,"Diff. between days, %","[4]; scopolamine 0.1 mg/kg s.c. + compound A 2.5 mg/kg p.o. days 1-6, p NS",16%
same,Mean latency Day 5,[4]; [15],33.8 ± 3.0 s
same,Mean latency Day 6,[4]; [15],28.4 ± 3.4 s
same,"Diff. between days, %","[4]; scopolamine 0.1 mg/kg s.c. + compound A 10 mg/kg p.o. day 5 only, p NS",-4%
same,Mean latency Day 5,[4]; [16],34.3 ± 2.8 s
same,Mean latency Day 6,[4]; [16],15.8 ± 4.5 s
same,"Diff. between days, %","[4]; scopolamine 0.1 mg/kg s.c. + compound A 10 mg/kg p.o. days 1-6, p <0.01",41%
same,Mean latency Day 5,[4]; [17],35.4 ± 3.2 s
same,Mean latency Day 6,[4]; [17],20.8 ± 3.6 s
same,"Diff. between days, %","[4]; scopolamine 0.1 mg/kg s.c. + compound A 10 mg/kg p.o. days 5 and 6, p NS (0.1)",28%
same,Mean latency Day 5,[4]; [18],38.2 ± 4.3 s
same,Mean latency Day 6,[4]; [18],27.7 ± 3.5 s
same,"Diff. between days, %","[4]; scopolamine 0.1 mg/kg s.c. + compound A 40 mg/kg p.o. day 5 only, p printed #0.001",46%
same,Mean latency Day 5,[4]; [19],33.3 ± 2.6 s
same,Mean latency Day 6,[4]; [19],18.0 ± 2.0 s
same,"Diff. between days, %","[4]; scopolamine 0.1 mg/kg s.c. + compound A 40 mg/kg p.o. days 5 and 6, p <0.01",48%
same,Mean latency Day 5,[4]; [20],33.6 ± 3.6 s
same,Mean latency Day 6,[4]; [20],17.5 ± 2.5 s
